The results in this text go back to ChEMBL document CHEMBL5154839, “Discovery of a selective and covalent small-molecule inhibitor of BFL-1 protein that induces robust apoptosis in cancer cells” (Eur J Med Chem, 2022).

For assay [1], the system named is U-937. In words: Induction of apoptosis in human U-937 cells assessed as increase in BFL-1 protein expression after 24 hrs by Western blot analysis. Format: functional, cell-based. The conditions noted are these: DDE = dose-dependent effect.
Assay [2] has as its system U-937. In words: Induction of apoptosis in human U-937 cells assessed as necrotic cells at 60 uM measured after 4 hrs by Annexin PI staining based flow cytometry method (reference value: 0.00 %). The class given is functional. Background: Flow cytometry measures light scatter and fluorescence of single cells or particles in a stream.
Assay [3] relates to U-937. The experiment in a line: Induction of apoptosis in human U-937 cells assessed as late apoptotic cells at 60 uM measured after 4 hrs by Annexin PI staining based flow cytometry method (reference value: 1.62 %). The class given is functional.
Assay [4] deals with U-937. The experiment in a line: Induction of apoptosis in human U-937 cells assessed as caspase-3 cleavage measured after 24 hrs by Western blot analysis. Format: functional, cell-based. The conditions noted are these: DDE = dose-dependent effect. (In general: In western blotting, separated proteins are transferred to a membrane and probed.)
The species named for another assay is Homo sapiens. The experiment in a line: Displacement of fluorescein tagged BID BH3 peptide from His-tagged recombinant BFL-1 (1 to 151 residues) C55A mutant (unknown origin) expressed in Escherichia coli BL21 (DE3) assessed as fold decrease in inhibition constant incubated for 24 hrs by fluorescence polarization-based competitive binding assay relative to wild type.

The next assay has as its system Kasumi 1. In words: Growth inhibition of human Kasumi 1 cells incubated for 4 days by WST assay. The conditions noted are these: Kasumi 1, 96 h. The class given is functional, cell-based.
The test system of assay [5] is U-937. The experiment in a line: Induction of apoptosis in human U-937 cells assessed as necrotic cells at 10 uM measured after 4 hrs by Annexin PI staining based flow cytometry method (reference value: 0.00 %). The class given is functional.
Assay [6] has as its system U-937. The experiment in a line: Induction of apoptosis in human U-937 cells overexpressing BFL-1 assessed as increase in cytochrome c level incubated for 3 hrs by immunoblotting analysis. The class given is functional, cell-based.
The subject of another assay is RPMI-8226. In words: Upregulation of BFL-1protein expression in human RPMI-8226 cells by Western blotting analysis. The class given is functional, cell-based.
Assay [7] concerns U-937. The experiment in a line: Induction of apoptosis in human U-937 cells assessed as late apoptotic cells at 40 uM measured after 4 hrs by Annexin PI staining based flow cytometry method (reference value: 1.62 %). Format: functional.
Assay [8] relates to U-937. The experiment in a line: Induction of apoptosis in human U-937 cells assessed as early apoptotic cells at 60 uM measured after 4 hrs by Annexin PI staining based flow cytometry method (reference value: 1.95 %). Format: functional.
In assay [9] the target is Transcriptional enhancer factor TEF-4 (Homo sapiens, UniProt Q15562). In words: Displacement of FAM- labeled YAP1 peptide from TEAD2 (217 to 447 residues) (unknown origin) expressed in Escherichia coli BL21 (DE3) assessed as inhibition constant incubated for 1.5 hrs by fluorescence polarization-based competitive binding assay. In general terms: Fluorescence polarisation rises when a labelled molecule tumbles more slowly, as on binding a larger partner.

Assay [10] has as its target BCL2A11/BBC3 (Homo sapiens) (UniProt Q16548+Q9BXH1). The experiment in a line: Inhibition of human BFL-1/PUMA protein-protein interaction in human Kasumi 1 cells assessed as increase in BFL-1 protein level at 20 to 80 uM measured after 5 hrs by co-immunoprecipitation assay. The class given is cell-based. The conditions noted are these: dose 20-80 µM.
For assay [11], the system named is U-937. The experiment in a line: Induction of apoptosis in human U-937 cells assessed as late apoptotic cells at 20 uM measured after 4 hrs by Annexin PI staining based flow cytometry method (reference value: 1.62 %). The class given is functional.
Another assay addresses Bcl-2-like protein 1 (Homo sapiens, UniProt Q07817). In words: Displacement of fluorescein tagged BAK peptide from N-terminal His tagged human BCL-xL (1 to 209 residues) expressed in Escherichia coli BL21 (DE3) assessed as inhibition constant incubated for 1.5 hrs by fluorescence polarization-based competitive binding assay.
In assay [12] the target is Bromodomain-containing protein 2 (Homo sapiens, UniProt P25440). The experiment in a line: Binding affinity to recombinant human BRD2 BD2 (349-460 residues) assessed as inhibition constant by fluorescence polarization assay.
In assay [13] the test system is U-937. The experiment in a line: Induction of apoptosis in human U-937 cells assessed as necrotic cells at 40 uM measured after 4 hrs by Annexin PI staining based flow cytometry method (reference value: 0.00 %). Format: functional.
The target of assay [14] is Apoptosis regulator Bcl-2 (Homo sapiens, UniProt P10415). The experiment in a line: Displacement of fluorescein tagged BIM peptide from N-terminal His tagged human BCL-2 (1 to 170 residues) expressed in Escherichia coli BL21 (DE3) assessed as inhibition constant incubated for 1.5 hrs by fluorescence polarization-based competitive binding assay.
The subject of a further assay is MM1.S. The experiment in a line: Growth inhibition of human MM1.S cells incubated for 4 days by WST assay. The conditions noted are these: 96 h. Format: functional, cell-based.
Assay [15] concerns U-937. In words: Induction of apoptosis in human U-937 cells assessed as phosphatidylserine level measured after 4 hrs by Annexin V staining based flow cytometry analysis. The class given is functional, cell-based. The conditions noted are these: DDE = dose-dependent effect.
Another assay relates to HL-60. The experiment in a line: Growth inhibition of human HL-60 cells incubated for 4 days by WST assay. Format: functional, cell-based. The conditions noted are these: HL-60, 96 h.
Assay [16] deals with U-937. In words: Induction of apoptosis in human U-937 cells assessed as decrease in MCL-1 protein expression after 24 hrs by Western blot analysis. The class given is functional, cell-based. The conditions noted are these: DDE = dose-dependent effect.

Each structure is given as a SMILES string. The source made the active and inactive calls. No cut-off for these calls is given here.

Chain of Bcl-2-like protein 1 (Q07817 whole entry, the tested form may be a part): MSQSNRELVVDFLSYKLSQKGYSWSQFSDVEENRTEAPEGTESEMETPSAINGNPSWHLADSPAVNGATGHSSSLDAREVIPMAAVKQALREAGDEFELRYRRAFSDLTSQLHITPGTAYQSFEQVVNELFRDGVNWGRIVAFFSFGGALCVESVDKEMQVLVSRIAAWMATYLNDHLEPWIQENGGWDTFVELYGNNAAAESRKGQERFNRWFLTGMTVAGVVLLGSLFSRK
Chain of BCL2A11/BBC3 (Homo sapiens) (Q16548 whole entry, looked up): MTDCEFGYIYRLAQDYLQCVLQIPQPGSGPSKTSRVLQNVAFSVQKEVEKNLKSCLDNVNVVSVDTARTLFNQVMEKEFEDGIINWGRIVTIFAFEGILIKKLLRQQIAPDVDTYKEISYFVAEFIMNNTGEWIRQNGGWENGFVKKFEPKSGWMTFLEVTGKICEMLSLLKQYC
Chain of BCL2A11/BBC3 (Homo sapiens) (Q9BXH1 whole entry, looked up): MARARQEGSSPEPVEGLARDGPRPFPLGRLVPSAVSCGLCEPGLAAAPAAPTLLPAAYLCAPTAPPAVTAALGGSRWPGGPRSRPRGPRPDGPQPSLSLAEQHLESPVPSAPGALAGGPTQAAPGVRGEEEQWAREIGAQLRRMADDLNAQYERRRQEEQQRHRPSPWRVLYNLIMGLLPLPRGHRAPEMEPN
Chain of Transcriptional enhancer factor TEF-4 (Q15562 whole entry, the tested form may be a part): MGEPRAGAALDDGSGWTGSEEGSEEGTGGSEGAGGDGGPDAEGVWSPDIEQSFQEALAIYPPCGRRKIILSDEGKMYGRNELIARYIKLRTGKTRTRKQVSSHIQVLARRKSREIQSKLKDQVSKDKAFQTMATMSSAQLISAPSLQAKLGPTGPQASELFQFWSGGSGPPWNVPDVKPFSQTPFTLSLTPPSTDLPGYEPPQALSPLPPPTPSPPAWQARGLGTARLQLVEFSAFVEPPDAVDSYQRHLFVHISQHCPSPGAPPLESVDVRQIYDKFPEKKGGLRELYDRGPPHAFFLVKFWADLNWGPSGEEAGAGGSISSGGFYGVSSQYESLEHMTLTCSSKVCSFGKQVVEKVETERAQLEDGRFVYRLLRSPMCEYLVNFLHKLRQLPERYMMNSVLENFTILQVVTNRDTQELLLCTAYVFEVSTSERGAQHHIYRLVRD
Chain of Apoptosis regulator Bcl-2 (P10415 whole entry, the tested form may be a part): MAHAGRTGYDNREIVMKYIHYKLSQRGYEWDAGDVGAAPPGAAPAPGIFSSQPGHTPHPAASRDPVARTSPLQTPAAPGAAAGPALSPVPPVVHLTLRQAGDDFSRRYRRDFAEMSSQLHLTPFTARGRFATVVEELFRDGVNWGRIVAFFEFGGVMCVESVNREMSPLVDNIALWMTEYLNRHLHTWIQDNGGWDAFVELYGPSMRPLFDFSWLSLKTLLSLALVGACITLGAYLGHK
Chain of Bromodomain-containing protein 2 (P25440 whole entry, the tested form may be a part): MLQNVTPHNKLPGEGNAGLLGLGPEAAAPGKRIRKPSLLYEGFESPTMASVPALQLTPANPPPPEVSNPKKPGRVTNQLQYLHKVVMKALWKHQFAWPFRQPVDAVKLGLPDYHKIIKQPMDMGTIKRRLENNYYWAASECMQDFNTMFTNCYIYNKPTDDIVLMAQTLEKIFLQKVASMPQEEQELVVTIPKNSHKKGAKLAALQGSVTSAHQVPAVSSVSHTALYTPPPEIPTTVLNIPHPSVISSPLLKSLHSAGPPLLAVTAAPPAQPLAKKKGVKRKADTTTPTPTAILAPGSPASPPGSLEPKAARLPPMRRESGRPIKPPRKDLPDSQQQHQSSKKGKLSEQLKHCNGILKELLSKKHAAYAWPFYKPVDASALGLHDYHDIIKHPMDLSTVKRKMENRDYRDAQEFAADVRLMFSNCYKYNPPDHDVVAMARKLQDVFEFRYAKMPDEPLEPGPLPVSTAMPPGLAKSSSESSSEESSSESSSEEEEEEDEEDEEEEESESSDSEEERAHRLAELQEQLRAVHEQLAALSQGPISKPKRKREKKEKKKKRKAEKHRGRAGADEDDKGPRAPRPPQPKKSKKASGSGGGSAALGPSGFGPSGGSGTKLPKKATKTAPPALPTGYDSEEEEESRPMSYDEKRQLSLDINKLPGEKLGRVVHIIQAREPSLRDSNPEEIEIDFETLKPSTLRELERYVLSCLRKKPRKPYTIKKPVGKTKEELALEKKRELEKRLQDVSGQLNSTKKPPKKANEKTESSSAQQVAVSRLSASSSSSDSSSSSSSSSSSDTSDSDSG

In general, IC50 refers to the point on the concentration scale where inhibition reaches its midpoint. Lower therefore signals greater potency. The term Ki denotes a dissociation constant, usually derived from enzyme kinetics or from competition with a known ligand. In the case of `C=CC(=O)N1CCN(c2c3ccc(-c4cccc(F)c4)cc3nn2Cc2ccccc2)CC1`, the Activity result in the assay with U-937 [1] is “Dde”; in the assay with U-937 [2], 11.37%; with U-937 [3], 21.52%; in the assay with U-937 [4], “Dde”; with U-937 [5], 0.16%; in the assay with U-937 [7] it was 20.83%. Moreover, the Activity in the assay on U-937 [8] is 4.61%; in the assay with U-937 [11], 4.05%; with U-937 [13], 7.22%; with U-937 [15], “Dde”; in the assay on U-937 [16], “Dde”. Also, the fold change (FC) in the assay filed under Homo sapiens is 21. Besides, the IC50 with Kasumi 1 came to 5.5 µM; in the assay with MM1.S, 6.8 µM; with HL-60 it was 10.7 µM. The result (in the assay with U-937 [6]; in the assay with RPMI-8226; in [10]) was Active. In addition, the inhibition constant (Ki) (in assay [9]; at Bcl-2-like protein 1; in assay [12]; in assay [14]) was above 400 µM in each case.
